Each structure is given as a SMILES string. Values after ≈ are worked out from the molar mass of the structure shown. A value given as a limit tells only on which side of the number the result lay.

Experiment [1] in a line: Inhibition of tryptophanyl tRNA synthetase isolated from Staphylococcus aureus.
The test system of a further experiment is Staphylococcus aureus. In words: Antibacterial activity against Staphylococcus aureus. Type of experiment: functional.

Turning to `CNC1=NC(=O)[C@H]([C@H](CN)c2c[nH]c3ccccc23)O1`, the I50 in experiment [1] is > 100000 ng/mL. Also, the minimal inhibitory concentration (MIC) – broadly, the lowest concentration that inhibits growth of the organism – against Staphylococcus aureus was > 512 mg/L.

Consider `CNC1=NC(=O)[C@H]([C@@](C)(O)c2c[nH]c3ccccc23)O1`, for which the I50 in experiment [1] turned out to be 46 ng/mL. The minimal inhibitory concentration (MIC) with Staphylococcus aureus is 0.25 mg/L (≈ 0.915 µM).

Turning to `CNC1=NC(=O)[C@H]([C@H](/C=N\O)c2c[nH]c3ccccc23)O1`, the I50 in experiment [1] was > 100000 ng/mL. Moreover, in the experiment on Staphylococcus aureus, the minimum inhibitory concentration (MIC) was > 512 mg/L.

With `CNC1=NC(=O)[C@H](Cc2c[nH]c3ccccc23)O1`, the I50 in experiment [1] worked out at 1550 ng/mL. In the experiment with Staphylococcus aureus, this compound yielded a minimum inhibitory concentration (MIC) of 64 mg/L (≈ 263 µM).

Regarding `CNC1=NC(=O)[C@H]([C@@H](CC(=O)O)c2c[nH]c3ccccc23)O1`, the I50 in experiment [1] was > 100000 ng/mL. In the experiment on Staphylococcus aureus, the minimum inhibitory concentration (MIC) was > 512 mg/L.

Consider `CC[C@@H](c1c[nH]c2ccccc12)[C@@H]1OC(NC)=NC1=O`, for which the I50 in experiment [1] stood at 22000 ng/mL. Besides, in the experiment with Staphylococcus aureus, the minimal inhibitory concentration (MIC) was > 512 mg/L.

For the compound `CNC1=NC(=O)[C@H]([C@@H](C[N+](=O)[O-])c2c[nH]c3ccccc23)O1`, the I50 in experiment [1] is > 100000 ng/mL. For the same compound, the minimal inhibitory concentration (MIC) against Staphylococcus aureus was > 64 mg/L.

For the compound `CNC1=NC(=O)[C@](C)([C@H](C)c2c[nH]c3ccccc23)O1`, the I50 in experiment [1] amounted to 1200 ng/mL. Moreover, the minimum inhibitory concentration (MIC) against Staphylococcus aureus was 64 mg/L (≈ 236 µM).

As for `CNC1=NC(=O)[C@H]([C@](C)(O)c2c[nH]c3ccccc23)O1`, the I50 in experiment [1] was > 100000 ng/mL. Also, the MIC against Staphylococcus aureus was > 64 mg/L.

On to `CNC1=NC(=O)[C@H](C(C)(C)c2c[nH]c3ccccc23)O1`, for which, in experiment [1], the I50 amounted to 580 ng/mL. The minimum inhibitory concentration (MIC) with Staphylococcus aureus amounted to 32 mg/L (≈ 118 µM).

For the compound `CNC1=NC(=O)[C@](C)([C@@H](C)c2c[nH]c3ccccc23)O1`, the I50 in experiment [1] is > 100000 ng/mL. The minimum inhibitory concentration (MIC) in the experiment with Staphylococcus aureus is > 512 mg/L.

Regarding `CNC1=NC(=O)[C@H]([C@H](C[N+](=O)[O-])c2c[nH]c3ccccc23)O1`, the I50 in experiment [1] was determined as 2300 ng/mL. This compound also gave a minimum inhibitory concentration (MIC) in the experiment on Staphylococcus aureus of 64 mg/L (≈ 212 µM).

In the case of `CNC1=NC(=O)[C@H]([C@H](CC(=O)O)c2c[nH]c3ccccc23)O1`, the I50 in experiment [1] is > 100000 ng/mL. In the experiment on Staphylococcus aureus, the minimum inhibitory concentration (MIC) was > 512 mg/L.

Consider `CC[C@H](c1c[nH]c2ccccc12)[C@@H]1OC(NC)=NC1=O`, for which, in experiment [1], the I50 stood at 250 ng/mL. The minimum inhibitory concentration (MIC) against Staphylococcus aureus was determined as 64 mg/L (≈ 236 µM).

Regarding `CNC1=NC(=O)[C@H]([C@@H](CC(=O)OC(C)(C)C)c2c[nH]c3ccccc23)O1`, in experiment [1], the I50 was > 100000 ng/mL. The MIC against Staphylococcus aureus is > 512 mg/L.

For the compound `CNC1=NC(=O)[C@H]([C@H](CC(=O)OC(C)(C)C)c2c[nH]c3ccccc23)O1`, the I50 in experiment [1] was > 100000 ng/mL. Also, the MIC against Staphylococcus aureus is > 512 mg/L.

With `CNC1=NC(=O)[C@H]([C@@H](O)c2c[nH]c3ccccc23)O1`, in experiment [1], the I50 is 44000 ng/mL. Besides, the minimal inhibitory concentration (MIC) against Staphylococcus aureus was > 64 mg/L.

`CNC1=NC(=O)[C@H]([C@@H](C)c2c[nH]c3ccccc23)O1` registered an I50 in experiment [1] of 500 ng/mL. The MIC in the experiment on Staphylococcus aureus was 8 mg/L (≈ 31.1 µM).

Turning to `CNC1=NC(=O)[C@H]([C@H](O)c2c[nH]c3ccccc23)O1`, the I50 in experiment [1] was found to be 4000 ng/mL. For the same compound, the minimal inhibitory concentration (MIC) against Staphylococcus aureus is > 64 mg/L.

With `CNC1=NC(=O)[C@H]([C@H](C)c2c[nH]c3ccccc23)O1` [INDOMYCIN], in experiment [1], the I50 stood at 16 ng/mL. In the experiment on Staphylococcus aureus, this compound came in with an MIC of 0.125 mg/L (≈ 0.486 µM).

The values are drawn from ChEMBL document CHEMBL1129098, “Structure-activity dependency of new bacterial tryptophanyl tRNA synthetase inhibitors” (Bioorg Med Chem Lett, 1996).
